Measured values as given in US10189854B2, “Substituted pyrimidine compounds” (Grünenthal GmbH, priority 2014, dated 2019).

Target: human PDE4B1 (Homo sapiens (Human), UniProt Q07343)
Assay: cAMP HTRF assay to determine the activity of hPDE4B1
Type: biochemical
Settings: IC50 inhibition of PDE4B; human recombinant PDE4B1, cAMP HTRF assay
How it was run: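 Recombinant human PDE4B1 expressed in Sf9 cells (4.8 U) was incubated with 40 nM cAMP for 30 min at room temperature in Tris buffer, pH 7.8, with MgCl2, DTT and Tween 20. HTRF detection of remaining cAMP followed, with 1 mM IBMX stop, read 60 min later as the 665/620 nm ratio. Results are % inhibition versus control.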

Sequence of human PDE4B1 (Q07343 whole entry): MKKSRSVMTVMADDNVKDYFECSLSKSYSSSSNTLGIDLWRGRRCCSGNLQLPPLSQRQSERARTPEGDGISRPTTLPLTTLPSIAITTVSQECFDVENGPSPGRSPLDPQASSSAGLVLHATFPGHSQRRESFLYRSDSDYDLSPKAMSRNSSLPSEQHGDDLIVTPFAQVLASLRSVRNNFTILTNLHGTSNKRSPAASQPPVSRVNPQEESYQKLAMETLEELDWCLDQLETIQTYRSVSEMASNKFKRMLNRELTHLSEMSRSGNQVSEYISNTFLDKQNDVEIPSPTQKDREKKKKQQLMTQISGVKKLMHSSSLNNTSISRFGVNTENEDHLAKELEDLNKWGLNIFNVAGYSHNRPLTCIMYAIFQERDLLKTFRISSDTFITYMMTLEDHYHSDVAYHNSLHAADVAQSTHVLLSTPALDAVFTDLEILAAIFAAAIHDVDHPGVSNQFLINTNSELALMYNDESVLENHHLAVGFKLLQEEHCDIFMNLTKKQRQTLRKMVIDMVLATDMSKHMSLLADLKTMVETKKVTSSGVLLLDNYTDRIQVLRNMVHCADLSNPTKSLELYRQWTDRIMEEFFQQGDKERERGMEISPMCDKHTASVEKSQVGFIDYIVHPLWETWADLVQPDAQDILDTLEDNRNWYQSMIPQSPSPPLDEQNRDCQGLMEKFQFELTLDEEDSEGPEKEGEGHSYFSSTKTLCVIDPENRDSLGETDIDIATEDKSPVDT

IC50, 0.1 to 1 µM:
CC1(C)CN(C(=O)c2ccc3c(c2)N(c2ncc(-c4ccccc4F)cn2)CC32CC2)CCO1 [Compound 105, (2,2-Dimethyl-morpholin-4-yl)-[1-[5-(2-fluorophenyl)-pyrimidin-2-yl]-spiro[1,2-dihydro-indole-3,1′-cyclopropane]-6-yl] methanone]
O=C(c1ccc2c(c1)N(c1ncc(-c3ccccc3F)cn1)CC21CC1)N1CCS(=O)(=O)CC1 [Compound 106, (1,1-Dioxo-[1,4]thiazinan-4-yl)-[1-[5-(2-fluorophenyl)-pyrimidin-2-yl]-spiro[1,2-dihydro-indole-3,1′-cyclopropane]-6-yl]-methanone]
CN(C)[C@@H]1CCN(C(=O)c2ccc3c(c2)N(c2ncc(-c4ccccc4F)cn2)CC32CC2)C1 [Compound 110, [(3R)-3-Dimethylamino-pyrrolidin-1-yl]-[1-[5-(2-fluorophenyl)-pyrimidin-2-yl]-spiro[1,2-dihydro-indole-3,1′-cyclopropane]-6-yl]-methanone]
COc1ccc(C(N)=O)c(-c2cnc(N3CC4(CC4)c4ccc(C(=O)N5CCOCC5)cc43)nc2)c1 [Compound 113, 4-Methoxy-2-[2-[6-(morpholine-4-carbonyl)-spiro[1,2-dihydro-indole-3,1′-cyclopropane]-1-yl]-pyrimidin-5-yl]-benzamide]
NC(=O)c1ccc2c(c1)N(c1ncc(-c3ccccc3F)cn1)CC21CC1 [Compound 127, 1-[5-(2-Fluorophenyl)-pyrimidin-2-yl]-spiro[1,2-dihydro-indole-3,1′-cyclopropane]-6-carboxylic acid amide]
O=C(c1ccc2c(c1)N(c1ncc(-c3ccc(Cl)s3)cn1)CC21CC1)N1CCOCC1 [Compound 131, [1-[5-(5-Chloro-thiophen-2-yl)-pyrimidin-2-yl]-spiro[1,2-dihydro-indole-3,1′-cyclopropane]-6-yl]-morpholin-4-yl-methanone]
O=C(c1ccc2c(c1)N(c1ncc(-c3sccc3Cl)cn1)CC21CC1)N1CCOCC1 [Compound 133, [1-[5-(3-Chloro-thiophen-2-yl)-pyrimidin-2-yl]-spiro[1,2-dihydro-indole-3,1′-cyclopropane]-6-yl]-morpholin-4-yl-methanone]
Cn1nc(C(F)(F)F)cc1-c1cnc(N2CC3(CC3)c3ccc(C(=O)N4CCOCC4)cc32)nc1 [Compound 134, [1-[5-[2-Methyl-5-(trifluoromethyl)-2H-pyrazol-3-yl]-pyrimidin-2-yl]-spiro[1,2-dihydro-indole-3,1′-cyclopropane]-6-yl]-morpholin-4-yl-methanone]
Cc1noc(C)c1-c1cnc(N2CC3(CC3)c3ccc(C(=O)N4CCOCC4)cc32)nc1 [Compound 135, [1-[5-(3,5-Dimethyl-isoxazol-4-yl)-pyrimidin-2-yl]-spiro[1,2-di-hydro-indole-3,1′-cyclopropane]-6-yl]-morpholin-4-yl-methanone]

IC50, 1 to 10 µM:
O=C(c1ccc2c(c1)N(c1ncc(-c3ccccc3F)cn1)CC21CC1)N1CC2(CCNC2)C1 [Compound 111]
COc1ccc(C(N)=O)c(-c2cnc(N3CC4(CC4)c4ccc(C(=O)N5CCNCC5)cc43)nc2)c1 [Compound 122, 4-Methoxy-2-[2-[6-(piperazine-1-carbonyl)-spiro[1,2-dihydro-indole-3,1′-cyclopropane]-1-yl]-pyrimidin-5-yl]-benzamide]

IC50, < 0.1 µM:
O=C(c1ccc2c(c1)N(c1ncc(-c3ccccc3F)cn1)CC21CC1)N1CC2CC1CN2 (stereo not shown) [Compound 107, (2,5-Diazabicyclo[2.2.1]heptan-2-yl)-[1-[5-(2-fluorophenyl)-pyrimidin-2-yl]-spiro[1,2-dihydro-indole-3,1′-cyclopropane]-6-yl]-methanone]
N[C@@H]1CCN(C(=O)c2ccc3c(c2)N(c2ncc(-c4ccccc4)cn2)CC32CC2)C1 [Compound 108, [(3R)-3-Amino-pyrrolidin-1-yl]-[1-(5-phenyl-pyrimidin-2-yl)-spiro[1,2-dihydro-indole-3,1′-cyclopropane]-6-yl]methanone]
N#Cc1ccc(F)c(-c2cnc(N3CC4(CC4)c4ccc(C(=O)N5CCNCC5)cc43)nc2)c1 [Compound 109, 4-Fluoro-3-[2-[6-(piperazine-1-carbonyl)-spiro[1,2-dihydro-indole-3,1′-cyclopropane]-1-yl]-pyrimidin-5-yl]-benzonitrile]
N[C@@H]1CCN(C(=O)c2ccc3c(c2)N(c2ncc(-c4cccc(F)c4F)cn2)CC32CC2)C1 [Compound 114, [(3R)-3-Amino-pyrrolidin-1-yl]-[1-[5-(2,3-difluoro-phenyl)-pyrimidin-2-yl]-spiro[1,2-dihydro-indole-3,1′-cyclopropane]-6-yl]-methanone]
N[C@H]1CCN(C(=O)c2ccc3c(c2)N(c2ncc(-c4ccccc4F)cn2)CC32CC2)C1 [Compound 115, [(3S)-3-Amino-pyrrolidin-1-yl]-[1-[5-(2-fluorophenyl)-pyrimidin-2-yl]-spiro[1,2-dihydro-indole-3,1′-cyclopropane]-6-yl]-methanone]
NC(=O)c1ccc(F)c(-c2cnc(N3CC4(CC4)c4ccc(C(=O)N5CCNCC5)cc43)nc2)c1 [Compound 116, 4-Fluoro-3-[2-[6-(piperazine-1-carbonyl)-spiro[1,2-dihydro-indole-3,1′-cyclopropane]-1-yl]-pyrimidin-5-yl]-benzamide]
NC(=O)c1cccc(-c2cnc(N3CC4(CC4)c4ccc(C(=O)N5CC[C@@H](N)C5)cc43)nc2)c1 [Compound 118, 3-[2-[6-[(3R)-3-Amino-pyrrolidine-1-carbonyl]-spiro[1,2-dihydro-indole-3,1′-cyclopropane]-1-yl]-pyrimidin-5-yl]-benzamide]
NC(=O)c1ccc(-c2cnc(N3CC4(CC4)c4ccc(C(=O)N5CCNCC5)cc43)nc2)c(F)c1 [Compound 119, 3-Fluoro-4-[2-[6-(piperazine-1-carbonyl)-spiro[1,2-dihydro-indole-3,1′-cyclopropane]-1-yl]-pyrimidin-5-yl]-benzamide]
CN[C@@H]1CCN(C(=O)c2ccc3c(c2)N(c2ncc(-c4ccccc4F)cn2)CC32CC2)C1 [Compound 121, [1-[5-(2-Fluorophenyl)-pyrimidin-2-yl]-spiro[1,2-dihydro-indole-3,1′-cyclopropane]-6-yl]-[(3R)-3-methylamino-pyrrolidin-1-yl]-methanone]
N#Cc1ccc(F)c(-c2cnc(N3CC4(CC4)c4ccc(C(=O)N5CC[C@@H](N)C5)cc43)nc2)c1 [Compound 123, 3-[2-[6-[(3R)-3-Amino-pyrrolidine-1-carbonyl]-spiro[1,2-dihydro-indole-3,1′-cyclopropane]-1-yl]-pyrimidin-5-yl]-4-fluoro-benzonitrile]
CN(C)C(=O)c1ccc2c(c1)N(c1ncc(-c3ccccc3)cn1)CC21CC1 [Compound 124, N,N-Dimethyl-1-(5-phenyl-pyrimidin-2-yl)-spiro[1,2-dihydro-indole-3,1′-cyclopropane]-6-carboxylic acid amide]
CN(C)C(=O)c1ccc2c(c1)N(c1ncc(-c3cccc(F)c3)cn1)CC21CC1 [Compound 125, 1-[5-(3-Fluorophenyl)-pyrimidin-2-yl]-N,N-dimethyl-spiro[1,2-dihydro-indole-3,1′-cyclopropane]-6-carboxylic acid amide]
CN(CCO)C(=O)c1ccc2c(c1)N(c1ncc(-c3cc(F)cc(F)c3)cn1)CC21CC1 [Compound 126, 1-[5-(3,5-Difluoro-phenyl)-pyrimidin-2-yl]-N-(2-hydroxy-ethyl)-N-methyl-spiro[1,2-dihydro-indole-3,1′-cyclopropane]-6-carboxylic acid amide]
O=C1CN(C(=O)c2ccc3c(c2)N(c2ncc(-c4cc(F)cc(F)c4)cn2)CC32CC2)CCN1 [Compound 128, 4-[1-[5-(3,5-Difluoro-phenyl)-pyrimidin-2-yl]-spiro[1,2-dihydro-indole-3,1′-cyclopropane]-6-carbonyl]-piperazin-2-one]
CN(CCO)C(=O)c1ccc2c(c1)N(c1ncc(-c3cccc(F)c3)cn1)CC21CC1 [Compound 129, 1-[5-(3-Fluorophenyl)-pyrimidin-2-yl]-N-(2-hydroxy-ethyl)-N-methyl-spiro[1,2-dihydro-indole-3,1′-cyclopropane]-6-carboxylic acid amide]
O=C(c1ccc2c(c1)N(c1ncc(-c3cccc(F)c3)cn1)CC21CC1)N1CCCC1 [Compound 130, [1-[5-(3-Fluorophenyl)-pyrimidin-2-yl]-spiro[1,2-dihydro-indole-3,1′-cyclopropane]-6-yl]-pyrrolidin-1-yl-methanone]
O=C(c1ccc2c(c1)N(c1ncc(-c3ccsc3Cl)cn1)CC21CC1)N1CCOCC1 [Compound 132, [1-[5-(2-Chloro-thiophen-3-yl)-pyrimidin-2-yl]-spiro[1,2-dihydro-indole-3,1′-cyclopropane]-6-yl]-morpholin-4-yl-methanone]
Cn1ccc(-c2cnc(N3CC4(CC4)c4ccc(C(=O)N5CCOCC5)cc43)nc2)c1 [Compound 136, [1-[5-(1-Methyl-1H-pyrrol-3-yl)-pyrimidin-2-yl]-spiro[1,2-dihydro-indole-3,1′-cyclopropane]-6-yl]-morpholin-4-yl-methanone]
Cn1ccc(-c2cnc(N3CC4(CC4)c4ccc(C(=O)N5CCOCC5)cc43)nc2)n1 [Compound 137, [1-[5-(1-Methyl-1H-pyrazol-3-yl)-pyrimidin-2-yl]-spiro[1,2-dihydro-indole-3,1′-cyclopropane]-6-yl]-morpholin-4-yl-methanone]
Cn1cc(-c2cnc(N3CC4(CC4)c4ccc(C(=O)N5CCOCC5)cc43)nc2)cn1 [Compound 138, [1-[5-(1-Methyl-1H-pyrazol-4-yl)-pyrimidin-2-yl]-spiro[1,2-dihydro-indole-3,1′-cyclopropane]-6-yl]-morpholin-4-yl-methanone]
